# In patent US11406649B2, “Treatment of upper aerodigestive tract disorders and cough” (IVIEW THERAPEUTICS, INC., priority 2018, dated 2022):
# Entries after “also recorded” stand apart in the source; their conditions may differ.
# How the values were obtained:
# [1] = Water solubility of 1-dialkylphosphorylalkanes; assay type: physicochemical; conditions: water
# Description: The DIPA compounds are colorless liquids with a density less than water. These structures differ from those described by Rowsell and Spring U.S. Pat. No. 4,070,496 because '496 structures have their “head” (phosphine oxide group) covered by larger, more lipophilic groups. […] The applicant synthesized these analogs (which are achiral, by contrast to the structures of '496 which are >95% chiral). […] This increased water-solublility is striking (Table 3). […] The DIPA analogs are now mobile in the extracellular fluids and permeate between cells to access nerve endings in the stratum basale.
# [2] = target: cloned hTRPM8 channel (Homo sapiens (Human), UniProt Q7Z2W7); assay: TRPM8 agonist activity, Fluo-8 calcium FLIPR assay (ChanTest); assay type: cell-based; conditions: for Relative Potency to L-menthol: L-menthol = 1.0; for TRPM8 Relative Potency: Table 8, DIPA-1-7 = 1; for TRPM8 bioactivity: structural modifications
# cloned hTRPM8 channel, sequence (Q7Z2W7 whole entry): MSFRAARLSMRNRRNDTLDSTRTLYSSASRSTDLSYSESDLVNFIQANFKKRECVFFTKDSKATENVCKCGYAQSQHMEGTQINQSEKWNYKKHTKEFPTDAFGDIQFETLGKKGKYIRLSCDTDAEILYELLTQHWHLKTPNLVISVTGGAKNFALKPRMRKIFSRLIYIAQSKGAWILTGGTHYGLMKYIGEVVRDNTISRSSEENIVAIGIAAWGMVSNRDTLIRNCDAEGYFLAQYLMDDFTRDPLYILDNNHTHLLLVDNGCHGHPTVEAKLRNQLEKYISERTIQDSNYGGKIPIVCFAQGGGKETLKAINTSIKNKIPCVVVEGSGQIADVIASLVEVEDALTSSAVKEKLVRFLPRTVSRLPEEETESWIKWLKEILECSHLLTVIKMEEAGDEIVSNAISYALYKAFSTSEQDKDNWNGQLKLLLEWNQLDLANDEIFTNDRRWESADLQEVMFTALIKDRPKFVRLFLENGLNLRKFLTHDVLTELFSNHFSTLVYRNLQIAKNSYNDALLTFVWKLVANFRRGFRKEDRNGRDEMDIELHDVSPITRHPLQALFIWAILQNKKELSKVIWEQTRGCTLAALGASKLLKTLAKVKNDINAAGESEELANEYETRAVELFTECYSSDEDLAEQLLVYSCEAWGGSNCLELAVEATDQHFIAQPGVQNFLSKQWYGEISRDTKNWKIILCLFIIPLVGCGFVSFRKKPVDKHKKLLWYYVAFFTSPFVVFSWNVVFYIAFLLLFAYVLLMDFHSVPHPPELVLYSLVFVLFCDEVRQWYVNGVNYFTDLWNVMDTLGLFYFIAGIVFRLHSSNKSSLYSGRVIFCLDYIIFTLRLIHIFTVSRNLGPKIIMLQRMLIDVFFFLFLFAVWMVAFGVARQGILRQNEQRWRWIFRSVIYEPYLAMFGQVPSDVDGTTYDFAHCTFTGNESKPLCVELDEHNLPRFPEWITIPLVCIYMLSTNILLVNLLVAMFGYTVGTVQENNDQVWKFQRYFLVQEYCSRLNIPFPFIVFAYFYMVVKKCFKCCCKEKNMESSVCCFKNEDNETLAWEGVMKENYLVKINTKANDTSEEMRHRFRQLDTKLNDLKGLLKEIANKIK
# Experimental: In the first set of data, the potency and in vitro effects of test compounds were evaluated on cloned hTRPM8 channel (encoded by the human TRPM8 gene, expressed in CHO cells) using a Fluo-8 calcium kit and a Fluorescence Imaging Plate Reader (FLIPR^TETRA™) instrument. […] Test solutions were in a HEPES-buffered saline, in 384-well plates, and placed into the FLIPR instrument (Molecular Devices Corporation, Union City, Calif., USA). […] The test cells were Chinese Hamster Ovary (CHO) cells stably transfected with human TRPM8 cDNAs. Concentration-response data were analyzed via FLIPR Control software) and fitted to a Hill equation for the EC50.
# [3] = tested on: oropharynx and esophagus; assay: Sensory events and cold discomfort of compounds on throat, chest and body; conditions: for icy cold / pain in throat: DIPA-1-9 up to 12 mg per unit; for sensory side-effects: menthol 5 mg in an orally dissolving tablet; for taste: oral cavity / tongue
# Description: The terms “icy cold” is used to describe this adverse event in the throat.
# Most likely, the compound rapidly distributed and activated cold sensations in the eosophageal lining.
# [4] = tested on: anesthetized rat; assay: In vivo transdermal activity: shaking after topical application to abdominal skin of anesthetized rat; conditions: pure compound 20 μL on abdominal skin, counted 40 min
# Experimental: Shaking frequency was counted for 40 min after topical application.
# The importance of water solubility for permeation was further illustrated in studies on the abdominal skin of anesthetized rat. […] The pharmacokinetic determinants of bioactivity are precise. Thus, for the avoidance of cold discomfort, DIPA-1-9 has to reach the receptors in the stratum basale but not “over-stimulate”.
# [5] = tested on: rat skin; assay: Skin irritation tests on rat skin; assay type: in vivo; set-up: key to Redness after 20 μL applied topically to skin (scale of 0 to +++): scale of 0 to +++; scale of 0 to +++; scale of 0 to +++; scale of 0 to +++; conditions: for Redness after 20 μL applied topically to skin (scale of 0 to +++): rat skin; for skin irritancy: undiluted form
# [6] = tested on: acid-induced swallowing movements; assay: Suppression of acid-induced swallowing movements in the anesthetized rat; assay type: in vivo; conditions: for EC50: anesthetized rat; for Relative Potency: suppression of acid-induced swallowing
# Description: A principal endogenous irritant in the linings of the upper aerodigestive tract is hydrochloric acid. Acid stimulations of the mucosa of the pharynx will elicit reflex swallowing. […] In a rat animal model, solutions of organic acids such as acetic acid and citric acid were effective in eliciting swallowing [Kajii et al., Sour taste stimulation facilitates reflex swallowing from the pharynx and larynx in the rat Physiology & Behavior 77: 321-325, 2002]. These methods for measuring sensory responses to acid can be adapted for screening the activity of DIPA-1-9. An agent that stimulates swallowing or an agent that suppress the acid challenge may then have utility in relieving dysphagia or the discomfort of heartburn, respectively. Preliminary experiments were conducted at the Pavlov Institute of Physiology, St. Petersburg, Russia, using adult male Wistar rats (see Table 11) and Wei (US 0.2015/0111852 A1). Swallowing movements was identified as the electromyogram activity and could also be visualized as laryngeal movement. Work is in progress to get more results for DIPA-1-9.
# [7] = tested on: Oral Cavity and Pharynx; assay: Sensory qualities of compounds in syrup applied to base of tongue of volunteers; assay type: in vivo, human; conditions: for duration of unpleasant tastes: metallic, organic solvent-like, harsh
# Experimental: The DIPA compounds was 5 mg/mL in cherry-flavored syrup in a volume of 0.8 mL per dose. The sensory effect were recorded every 5 min for 1 hr.
# Tests were on four volunteers, with 3 to 5 trials per substance. Compounds were prepared in cherry-flavored syrup at 5 mg/mL and administered ˜0.8 mL per dose with a 2 mL plastic vial to the base of the tongue. The subjects asked to rate the sensations for cooling intensity, cold discomfort and adverse taste.
# The concentration of the DIPA compounds was 5 mg/mL in cherry-flavored syrup administered in a volume of 0.8 mL per dose. The sensory effect were recorded every 5 min for 1 hr.
# [8] = Flux through excised hairless mouse skin in vitro; assay type: in vitro ADME
# Experimental: Test chemicals dissolved in a gel were placed in an incubation well for 8 hr and the permeated amount of the chemical measured by a high pressure liquid chromatograph equipped with a refractive detector. These tests were conducted by Prof Choi of Chosun University, Korea. The flux of DIPA-1-7 was ˜5× greater than DIPA-1-9.
# To further study the skin permeation of DIPA compounds, tests were conducted on the flux of DIPA-1-7 and DIPA-1-9 through excised hairless mouse skin in vitro. These tests were conducted by Prof Choi, Dean of the School of Pharmacy of Chosun University, Korea, and the results shown in (FIG. 5).
# [9] = target: TRPM8 (Mus musculus (Mouse), UniProt Q8R4D5); assay: TRPM8 Fura-2 calcium assay in transfected CHO cells (Andersson et al.); assay type: cell-based; conditions: FIG. 4
# TRPM8, sequence (Q8R4D5 whole entry): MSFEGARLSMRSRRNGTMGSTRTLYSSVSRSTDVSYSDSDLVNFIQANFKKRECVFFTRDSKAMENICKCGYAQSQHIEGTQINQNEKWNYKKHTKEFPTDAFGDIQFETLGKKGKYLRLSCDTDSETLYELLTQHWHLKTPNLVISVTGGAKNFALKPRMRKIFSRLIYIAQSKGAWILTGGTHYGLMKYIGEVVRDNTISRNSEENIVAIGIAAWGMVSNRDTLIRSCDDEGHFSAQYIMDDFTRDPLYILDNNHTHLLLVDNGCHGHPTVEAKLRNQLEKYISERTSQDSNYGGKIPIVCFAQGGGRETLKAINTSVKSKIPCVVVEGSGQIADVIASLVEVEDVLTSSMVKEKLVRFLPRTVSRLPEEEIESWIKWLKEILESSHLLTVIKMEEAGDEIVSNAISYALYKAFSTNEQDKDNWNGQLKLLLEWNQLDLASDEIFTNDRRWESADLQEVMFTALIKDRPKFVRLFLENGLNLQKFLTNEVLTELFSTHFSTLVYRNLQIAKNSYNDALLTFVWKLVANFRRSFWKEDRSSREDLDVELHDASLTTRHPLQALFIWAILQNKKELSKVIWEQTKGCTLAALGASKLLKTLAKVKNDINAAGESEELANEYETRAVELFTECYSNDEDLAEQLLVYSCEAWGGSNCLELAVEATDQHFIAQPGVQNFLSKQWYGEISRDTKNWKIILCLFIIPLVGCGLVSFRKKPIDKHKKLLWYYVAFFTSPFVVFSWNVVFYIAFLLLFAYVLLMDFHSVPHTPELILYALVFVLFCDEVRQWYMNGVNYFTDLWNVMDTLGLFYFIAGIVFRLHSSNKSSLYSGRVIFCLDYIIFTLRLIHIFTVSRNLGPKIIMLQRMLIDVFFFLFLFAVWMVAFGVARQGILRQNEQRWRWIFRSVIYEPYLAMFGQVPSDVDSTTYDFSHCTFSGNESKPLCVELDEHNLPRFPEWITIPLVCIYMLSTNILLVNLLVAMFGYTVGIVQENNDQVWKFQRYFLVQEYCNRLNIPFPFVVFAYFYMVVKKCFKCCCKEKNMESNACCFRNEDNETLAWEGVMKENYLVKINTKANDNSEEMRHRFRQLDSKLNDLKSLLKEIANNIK
# Experimental: FIG. 4. is a graph of fluorescence response (Δ ratio 340/380) in TRPM8 transfected cells as a function of the logarithm of the concentration of the test compound, expressed in μM, for DIPA-1-7 (black circle), 3,4-7 (open squares), or 3,4-6 (open triangles). The assays were conducted by Andersson et al. of King's College, London, UK, using his methods described in “Modulation of the cold-activated channel TRPM8 by lysophospholipids and polyunsaturated fatty acids. Journal Neuroscience 27 (12): 3347-3355, 2007.
# In a second set, tests were made on “mixed” isopropyl-sec-butylphosphorylhexane and heptane analogs described as 3,4-6 and 3,4-7 in Table 2, and results shown in FIG. 4. […] Emission intensity from cells was measured for 90 sec, at every 4 or 5 sec, using excitation wavelengths of 340 and 380 nm and an emission of 520 nm. Fluorescence emission intensity ratios at 340 nm/380 nm excitation (R, in individual cells) were recorded with a FlexStation and the ImageMaster suite of software (PTI, South Brunswick, N.J.). Samples were tested in triplicate at each concentration and the averaged values analyzed by non-linear regression using an a sigmoidal function fit of the points to obtain an estimated EC50 (median effective concentration) (GraphPad Prism software, La Jolla, Calif.). […]
# [10] = tested on: dorsal surface of the tongue; conditions: average of 6 subjects; cited from earlier work
# [11] = tested on: respiratory syncytial virus (RSV) induced cough; assay: Mouse cough model of respiratory syncytial virus infection; assay type: in vivo; conditions: 1 mg perioral per mouse, 1 hr before count
# [12] = 5 mg/mL in cherry-flavored syrup
# [13] = 5 mg/mL in cherry-flavored syrup, ~0.8 mL
smiles,measurement,setting,value
"CCCCCCC[P@@](=O)(C(C)C)[C@@H](C)CC [3,4-7, 1-(Isopropyl-sec-butyl)-phosphinoyl-heptane]",solubility,[1],20 mg/mL
"CCCCCCP(=O)(C(C)C)C(C)C [DIPA-1-6, 1-Di(isopropyl)-phosphinoyl-hexane]",Relative Potency to L-menthol,[2],1.6
same,icy cold / pain in throat,[3],icy cold
same,shaking after topical application,[4],robust shaking
"CCCCP(=O)(C(C)CC)C(C)CC (stereo not shown) [DAPA-2-4, 1-Di(sec-butyl)-phosphinoyl-butane]",Relative Potency to L-menthol,[2],0.3
"CCCCCCP(=O)(C(C)CC)C(C)CC (stereo not shown) [DAPA-2-6, 1-Di(sec-butyl)-phosphinoyl-hexane]",Redness after 20 μL applied topically to skin (scale of 0 to +++),[5],+
same,skin irritancy,[5],skin irritants
same,EC50,[6],1700 ± 700 µg/mL
same,Relative Potency,[6],0.05
same,sensory effects,[7]; [12],"cold, icy cold, and adverse tastes"
same,Sensation,[7]; [13],icy cold
same,duration of unpleasant tastes,[7],at least 15 min
same,solubility,[1],8 mg/mL
same,Relative Potency to L-menthol,[2],4.7
same,TRPM8 Relative Potency,[2],0.87
same,icy cold / pain in throat,[3],icy cold
"O=C1NC(c2cccc([N+](=O)[O-])c2)=CCN1c1ccccc1O [icilin, reference compound]",sensory side-effects,[3],did not produce cooling in the chest or the desired sensations on the throat
"CCCCCC[P@@](=O)(C(C)C)[C@@H](C)CC [3,4-6, 1-(Isopropyl-sec-butyl)-phosphinoyl-hexane]",Adverse Taste,[7]; [13],0
same,solubility,[1],25 mg/mL
"CCCCCCCCP(=O)(C(C)C)C(C)C [DIPA-1-8, 1-Di(isopropyl)-phosphinoyl-octane]",sensory effects,[7]; [12],"cold, icy cold, and adverse tastes"
same,Sensation,[7]; [13],cold
same,duration of unpleasant tastes,[7],at least 15 min
same,solubility,[1],> 300 mg/mL
same,Relative Potency to L-menthol,[2],5.4
same,taste,[3],this taste is present
"CCCCCCCP(=O)(C(C)C)C(C)C [DIPA-1-7, 1-Di(isopropyl)-phosphinoyl-heptane]",EC50,[6],820 ± 80 µg/mL
same,Relative Potency,[6],0.11
same,sensory effects,[7]; [12],"cold, icy cold, and adverse tastes; also recorded: icy pain in the back of the throat"
same,Sensation,[7]; [13],painful cold
same,duration of unpleasant tastes,[7],at least 15 min
same,solubility,[1],> 300 mg/mL
same,penetration of excised skin,[8],very active in penetrating the excised skin
same,flux relative to DIPA-1-9,"[8]; gel, 8 hr",~5 ×
same,decrease in rate of permeation by added standard enhancers,[8]; propylene glycol-oleyl alcohol (50:50) or Lauroglycol 90 added to gel,~50%
same,Relative Potency to L-menthol,[2],5.4
same,TRPM8 Relative Potency,[2],1
same,icy cold / pain in throat,[3],icy cold
same,cold in the chest / behind sternum,[3]; in vivo,"spreads behind the sternum, into the chest"
same,taste,[3],this taste is present
same,"potency for activation of TRPM8 relative to 3,4-6",[9],~10 ×
same,"potency for activation of TRPM8 relative to 3,4-7",[9],~5 ×
same,shaking after topical application,[4],vigorous shaking; also recorded: robust shaking
"CCC(C)P(=O)(CCC(C)C)C(C)CC (stereo not shown) [DAPA-3-2, 1-Di(sec-butyl) phosphinoyl-3-methyl-butane]",Relative Potency to L-menthol,[2],0.9
same,TRPM8 bioactivity,[2],significant loss of bioactivity
"CCCCCCCCP(=O)(C(C)CC)C(C)CC (stereo not shown) [DAPA-2-8, 1-Di(sec-butyl)-phosphinoyl-octane]",EC50,[6],560 ± 170 µg/mL
same,Relative Potency,[6],0.16
same,Sensation,[7]; [13],cold
same,duration of unpleasant tastes,[7],at least 15 min
same,solubility,[1],< 3 mg/mL
same,Relative Potency to L-menthol,[2],2.9
same,TRPM8 Relative Potency,[2],0.71
"CC(C)[C@@H]1CC[C@@H](C)C[C@H]1O [Menthol, reference compound]",sensory side-effects,[3],chest discomfort
same,"Threshold, μg (cooling on tongue)",[10],0.25 µg
"CCCCCP(=O)(C(C)CC)C(C)CC (stereo not shown) [DAPA-2-5, 1-di-sec-butyl-phosphorylpentane]",solubility,[1],22 mg/mL
same,Relative Potency to L-menthol,[2],2.2
"CCCCCP(=O)(C(C)C)C(C)C [DIPA-1-5, 1-Di(isopropyl)-phosphinoyl-pentane]",Relative Potency to L-menthol,[2],0.7
same,shaking after topical application,[4],robust shaking
"COc1ccc2c3c1O[C@H]1[C@@H](O)C=C[C@H]4[C@@H](C2)N(C)CC[C@@]341 [Codeine, reference compound]",cough frequency,[11],significantly inhibited cough frequency
"CCCCCP(=O)(CC(C)C)CC(C)C [DAPA-3-1, 1-di(iso-butyl) phosphinoyl-pentane]",Relative Potency to L-menthol,[2],0.2
same,TRPM8 bioactivity,[2],significant loss of bioactivity
"CCCCCCCP(=O)(C(C)CC)C(C)CC (stereo not shown) [DAPA-2-7, 1-Di(sec-butyl)-phosphinoyl-heptane]",Redness after 20 μL applied topically to skin (scale of 0 to +++),[5],++
same,skin irritancy,[5],skin irritants
same,EC50,[6],200 ± 20 µg/mL
same,Comments: duration of effect,[6]; long-lasting,lasting; > ~30 min
same,Relative Potency,[6],0.45
same,sensory effects,[7]; [12],"cold, icy cold, and adverse tastes"
same,Sensation,[7]; [13],icy cold
same,duration of unpleasant tastes,[7],at least 15 min
same,solubility,[1],< 3 mg/mL
same,Relative Potency to L-menthol,[2],3.4
same,TRPM8 Relative Potency,[2],0.64
same,icy cold / pain in throat,[3],icy cold
same,systemic sensations of cold,[3]; higher oral doses (5 mg or more),sensations of cold on other body surfaces
